MIC50 and IC (MIC80 of serotype panel) data for 36 compounds are collected here from US4843087A (priority 1986, dated 1989).

Converted amounts (≈) assume the structure as drawn.

The experiment relates to human rhinovirus (HRV) serotypes. The experiment can be described thus: microbe, parasite or virus in culture. Type of experiment: cell-based. Particulars: for MIC50: read-out: Rhinovirus MIC50; for IC (MIC80 of serotype panel): read-out: Rhinovirus MIC80.

As to `Cc1cc(CCCCCCCOc2ccc(C3=NC(C)CO3)cc2Cl)on1` (stereo not drawn) [17(b), 5-{7-[2-Chloro-4-(4,5-dihydro-4-methyl-2-oxazolyl)phenoxy]heptyl}-3-methylisoxazole], the MIC50 came to 0.89 µg/mL (≈ 2.28 µM) and the IC (MIC80 of serotype panel) was 26 µg/mL.

On to `Cc1cc(CCCCCCCCOc2ccc(C3=NCCO3)cc2)on1` [18(b), 5-{8-[4-(4,5-Dihydro-2-oxazolyl)phenoxy]octyl}-3-methylisoxazole], for which the MIC50 was 1.75 µg/mL (≈ 4.91 µM) and the IC (MIC80 of serotype panel) is 2.1 µg/mL.

Take `Cc1cc(CCCCCCCOc2cccc(C3=NCCO3)c2)on1` [26(b), 5-{7-[3-(4,5-Dihydro-2-oxazolyl)phenoxy]heptyl}-3-methylisoxazole]: the MIC50 turned out to be 0.94 µg/mL (≈ 2.75 µM) and the IC (MIC80 of serotype panel) was 1.12 µg/mL.

For the compound `Cc1cc(CCCCCCCCOc2ccc(C3=NC(C)CO3)cc2Cl)on1` (stereo not drawn) [27(b)], the MIC50 is 0.405 µg/mL (≈ 1 µM) and the IC (MIC80 of serotype panel) worked out at 25.8 µg/mL.

With `Cc1cc(CCCCCOc2c(C)cc(-c3nc(C)c(C)o3)cc2C)on1` [118(c), 5-{5-[4-(4,5-Dimethyl-2-oxazolyl)-2,6-dimethylphenoxy]pentyl}-3-methylisoxazole], the MIC50 turned out to be 0.37 µg/mL (≈ 1 µM) and the IC (MIC80 of serotype panel) came to 0.84 µg/mL.

As to `OCCOCOCc1cc(CCCCCOc2c(Cl)cc(C3=NCCO3)cc2Cl)on1` [149(b), 5-{5-[2,6-Dichloro-4-(4,5-dihydro-2-oxazolyl)phenoxy]pentyl}-3-isoxazolylmethoxymethoxyethanol], the MIC50 came to 0.13 µg/mL (≈ 0.275 µM) and the IC (MIC80 of serotype panel) came to 1.1 µg/mL.

Regarding `Cc1cc(CCCCCOc2c(Cl)cc(C3=NCCO3)cc2Cl)sn1` [150(b), 2-{3,5-Dichloro-4-[(5-(3-methyl-5-isothiazolyl)pentyl)oxy]phenyl}-4,5-dihydro-oxazole], the MIC50 stood at 0.12 µg/mL (≈ 0.3 µM) and the IC (MIC80 of serotype panel) is 0.35 µg/mL.

In the case of `Cc1cc(CCCCCOc2c(Cl)cc(C3=NCCO3)cc2C(F)(F)F)on1` [155(c), 5-{5-[2-Chloro-4-(4,5-dihydro-2-oxazolyl)-6-(trifluoromethyl)phenoxy]pentyl}-3-methylisoxazole], the MIC50 came out at 0.11 µg/mL (≈ 0.264 µM) and the IC (MIC80 of serotype panel) was found to be 0.56 µg/mL.

Turning to `Cc1cc(CCCCCOc2c(Cl)cc(C(=O)NCCCCl)cc2Cl)on1` [156(a), 3,5-Dichloro-N-(3-chloropropyl)-4-{[5-(3-methyl-5-isoxazolyl)pentyl]oxy}benzamide], the MIC50 was 0.795 µg/mL (≈ 1.83 µM) and the IC (MIC80 of serotype panel) was 99 µg/mL.

Turning to `Cc1cc(CCCCCOc2c(Cl)cc(C3=NCCCO3)cc2Cl)on1` [156(b)], the MIC50 is 0.705 µg/mL (≈ 1.77 µM) and the IC (MIC80 of serotype panel) turned out to be 28.6 µg/mL.

As to `Cc1cc(CCCCCCCOc2ccc(C3=N[C@@H](C)CO3)cc2)on1` [Example 4, (-)-5-{7-[4-(4,5-Dihydro-4-methyl-2oxazolyl)phenoxy]heptyl}-3-methylisoxazole], the MIC50 was determined as 0.025 µg/mL (≈ 0.0701 µM) and the IC (MIC80 of serotype panel) worked out at 0.03 µg/mL.

Regarding `Cc1cc(CCCCCCCOc2ccc(C3=NC(C)(C)CO3)cc2)on1` [Example 5, 5-{7-[4-(4,5-Dihydro-4,4-dimethyl-2oxazolyl)phenoxy]heptyl}-3-methylisoxazole], the MIC50 was 1.3 µg/mL (≈ 3.51 µM) and the IC (MIC80 of serotype panel) worked out at 99 µg/mL.

For `Cc1cc(CCCCCCCOc2ccc(C3=NCC(CO)O3)cc2)on1` (stereo not drawn) [Example 23, 5-{7-[4-(4,5-Dihydro-5-hydroxymethyl-2-oxazolyl)phenoxy]heptyl}-3-methylisoxazole], the MIC50 came to 1.55 µg/mL (≈ 4.16 µM) and the IC (MIC80 of serotype panel) is 2.9 µg/mL.

Regarding `Cc1cc(CCCCCCCOc2ccc(C3=NCC(CCl)O3)cc2)on1` (stereo not drawn) [Example 39, 5-{7-[4-(5-Choromethyl-4,5-dihydro-2-oxazolyl)phenoxy]heptyl}-3-methylisoxazole], the MIC50 is 0.87 µg/mL (≈ 2.23 µM) and the IC (MIC80 of serotype panel) was found to be 99 µg/mL.

Regarding `COCC1CN=C(c2ccc(OCCCCCCCc3cc(C)no3)cc2)O1` (stereo not drawn) [Example 40, 5-{7-[4-(4,5-Dihydro-5-methoxymethyl-2-oxazolyl)phenoxy]heptyl}-3-methylisoxazole], the MIC50 was determined as 0.535 µg/mL (≈ 1.38 µM) and the IC (MIC80 of serotype panel) is 99 µg/mL.

As to `Cc1cc(CCC=CCOc2ccc(C3=NCCO3)cc2)on1` [Example 55, 5-{5-[4-(4,5-Dihydro-2-oxazolyl)phenoxy]-3-pentenyl}-3-methylisoxazole], the MIC50 is 49.6 µg/mL (≈ 159 µM) and the IC (MIC80 of serotype panel) is 99 µg/mL.

For the compound `Cc1cc(CCCCCOc2ccc(C3=NC(C)(C)CO3)cc2Cl)on1` [Example 57, 5-{5-[2-Chloro-4-(4,5-dihydro-4,4-dimethyl-2-oxazolyl)phenoxy]pentyl}-3-methylisoxazole], the MIC50 came out at 50.1 µg/mL (≈ 133 µM) and the IC (MIC80 of serotype panel) came to 99 µg/mL.

On to `Cc1cc(CCCCOc2ccc(C3=NC(C)CO3)cc2Cl)on1` (stereo not drawn) [Example 65, 5-{4-[2-Chloro-4-(4,5-dihydro-4-methyl-2-oxazolyl)phenoxy]butyl}-3-methylisoxazole], for which the MIC50 was found to be 0.26 µg/mL (≈ 0.745 µM) and the IC (MIC80 of serotype panel) was determined as 0.45 µg/mL.

With `Cc1cc(CCCCOc2ccc(C3=NC(C)(C)CO3)cc2Cl)on1` [Example 66, 5-{4-[2-Chloro-4-(4,5-dihydro-4,4-dimethyl-2-oxazolyl)phenoxy]butyl}-3-methylisoxazole], the MIC50 is 0.78 µg/mL (≈ 2.15 µM) and the IC (MIC80 of serotype panel) amounted to 99 µg/mL.

As to `Cc1cc(CCCCCOc2ccc(C3=NCCO3)c(Cl)c2Cl)on1` [Example 72, 5-{5-[2,3-Dichloro-4-(4,5-dihydro-2-oxazolyl)phenoxy]pentyl}-3-methylisoxazole], the MIC50 came out at 0.27 µg/mL (≈ 0.704 µM) and the IC (MIC80 of serotype panel) was found to be 0.69 µg/mL.

For the compound `Cc1cc(CCCCCOc2ccc(C3=NCCO3)cc2C(C)(C)C)on1` [Example 76, 5-{5-[4-(4,5-Dihydro-2-oxazolyl)-2-(1,1-dimethylethyl)phenoxy]pentyl}-3-methylisoxazole], the MIC50 was 50.1 µg/mL (≈ 135 µM) and the IC (MIC80 of serotype panel) turned out to be 99 µg/mL.

On to `Cc1cc(CCCCCOc2ccc(-c3nc(C)c(C)o3)cc2C(F)(F)F)on1` [Example 91, 5-{5-[4-(4,5-Dimethyl-2-oxazolyl)-2-trifluoromethylphenoxy]pentyl}-3-methylisoxazole], for which the MIC50 came to 0.75 µg/mL (≈ 1.84 µM) and the IC (MIC80 of serotype panel) came to 1.4 µg/mL.

For `Cc1cc(CCCC(C)Oc2c(Cl)cc(C3=NCCO3)cc2Cl)on1` (stereo not drawn) [Example 110, 5-{4-[2,6-Dichloro-4-(4,5-dihydro-2-oxazolyl)phenoxy]pentyl}-3-methylisoxazole], the MIC50 turned out to be 0.24 µg/mL (≈ 0.626 µM) and the IC (MIC80 of serotype panel) came out at 0.64 µg/mL.

With `Cc1cc(CC/C=C\COc2c(Cl)cc(C3=NCCO3)cc2Cl)on1` [Example 112, 5-{5-[2,6-Dichloro-4-(4,5-dihydro-2-oxazolyl)phenoxy]-3-pentenyl}-3-methylisoxazole (Z-isomer)], the MIC50 turned out to be 0.079 µg/mL (≈ 0.207 µM) and the IC (MIC80 of serotype panel) stood at 0.74 µg/mL.

Take `Cc1cc(CCCCOc2c(Cl)cc(-c3nc(C)c(C)o3)cc2Cl)on1` [Example 120, 5-{4-[2,6-Dichloro-4-(4,5-dimethyl-2-oxazolyl)phenoxy]butyl}-3-methylisoxazole]: the MIC50 was found to be 0.16 µg/mL (≈ 0.405 µM) and the IC (MIC80 of serotype panel) was found to be 0.67 µg/mL.

On to `Cc1cc(CCCCCOc2ccc(C3=N[C@@H](C)CO3)cc2)on1` [Example 121, (S)-5-{5-[4-(4,5-Dihydro-4-methyl-2-oxazolyl)phenoxy]pentyl}-3-methylisoxazole], for which the MIC50 is 0.09 µg/mL (≈ 0.274 µM) and the IC (MIC80 of serotype panel) was 26 µg/mL.

In the case of `Cc1cc(CCCCCCCOc2ccc(C3=NC[C@H](C)O3)cc2)on1` [Example 122, (S)-5-{7-[4-(4,5-Dihydro-5-methyl-2-oxazolyl)phenoxy]heptyl}-3-methylisoxazole], the MIC50 was 0.24 µg/mL (≈ 0.673 µM) and the IC (MIC80 of serotype panel) amounted to 50.3 µg/mL.

As to `CC[C@H]1COC(c2ccc(OCCCCCCCc3cc(C)no3)cc2)=N1` [Example 124, (S)-5-{7-[4-(4-Ethyl-4,5-dihydro-2oxazolyl)phenoxy]heptyl}-3-methylisoxazole], the MIC50 stood at 0.36 µg/mL (≈ 0.972 µM) and the IC (MIC80 of serotype panel) was found to be 2.4 µg/mL.

On to `CC[C@@H]1COC(c2ccc(OCCCCCCCc3cc(C)no3)cc2)=N1` [Example 125, (R)-5-{7-[4-(4-Ethyl-4,5-dihydro-2-oxazolyl)phenoxy]heptyl}-3-methylisoxazole], for which the MIC50 stood at 0.69 µg/mL (≈ 1.86 µM) and the IC (MIC80 of serotype panel) worked out at 2.3 µg/mL.

For `Cc1cc(CCCCCCCOc2ccc(C3=N[C@@H](C(C)C)CO3)cc2)on1` [Example 126, (S)-5-{7-[4-(4,5-Dihydro-4-isopropyl-2-oxazolyl)phenoxy]heptyl}-3-methylisoxazole], the MIC50 came to 1.23 µg/mL (≈ 3.2 µM) and the IC (MIC80 of serotype panel) was 26.2 µg/mL.

Regarding `Cc1cc(CCCCCCCOc2ccc(C3=N[C@H](C(C)C)CO3)cc2)on1` [Example 127, (R)-5-{7-[4-(4,5-Dihydro-4-isopropyl-2-oxazolyl)phenoxy]heptyl}-3-methylisoxazole], the MIC50 came out at 0.76 µg/mL (≈ 1.98 µM) and the IC (MIC80 of serotype panel) is 1.4 µg/mL.

As for `CCC[C@H]1COC(c2ccc(OCCCCCCCc3cc(C)no3)cc2)=N1` [Example 128, (S)-5-{7-[4-(4,5-Dihydro-4-propyl-2-oxazolyl)phenoxy]heptyl}-3-methylisoxazole], the MIC50 is 0.245 µg/mL (≈ 0.637 µM) and the IC (MIC80 of serotype panel) stood at 27.1 µg/mL.

Take `CCC[C@@H]1COC(c2ccc(OCCCCCCCc3cc(C)no3)cc2)=N1` [Example 129, (R)-5-{7-[4-(4,5-Dihydro-4-propyl-2-oxazolyl)phenoxy]heptyl}-3-methylisoxazole]: the MIC50 was found to be 1.33 µg/mL (≈ 3.46 µM) and the IC (MIC80 of serotype panel) was found to be 2.6 µg/mL.

`CCCC[C@H]1COC(c2ccc(OCCCCCCCc3cc(C)no3)cc2)=N1` [Example 130, (S)-5-{7-[4-(4-Butyl-4,5-dihydro-2-oxazolyl)phenoxy]heptyl}-3-methylisoxazole]: the MIC50 turned out to be 1.08 µg/mL (≈ 2.71 µM) and the IC (MIC80 of serotype panel) is 2.07 µg/mL.

`CCCC[C@@H]1COC(c2ccc(OCCCCCCCc3cc(C)no3)cc2)=N1` [Example 131, (R)-5-{7-[4-(4-Butyl-4,5-dihydro-2-oxazolyl)phenoxy]heptyl}-3-methylisoxazole]: the MIC50 came to 1.44 µg/mL (≈ 3.61 µM) and the IC (MIC80 of serotype panel) worked out at 2.38 µg/mL.

For the compound `CCCCCCc1cc(CCOc2ccc(C3=N[C@@H](C)CO3)cc2)on1` [Example 132, (S)-5-{2-[4-(4,5-Dihydro-4-methyl-2-oxazolyl)phenoxy]ethyl}-3-hexylisoxazole], the MIC50 stood at 1.02 µg/mL (≈ 2.88 µM) and the IC (MIC80 of serotype panel) stood at 1.9 µg/mL.
